Experimental data published in the NIST ThermoML archive (doi:10.1016/j.jct.2016.05.021).

Legend:
[1] = xn = mol fraction of the nth substance listed; settings: 100 kPa, Liquid; for speed of sound: Frequency=3 MHz, Sing-around technique in a fixed-path interferometer; for mass density: Vibrating tube method
[2] = refractive index (Na D-line) (dimensionless); xn = mol fraction of the nth substance listed; settings: 100 kPa, Liquid, Standard Abbe refractometry

O=C1CCCN1 [2-pyrrolidinone] + CCCC[n+]1ccn(C)c1.O=S(=O)([N-]S(=O)(=O)C(F)(F)F)C(F)(F)F
Settings | mass density, [1] [kg/m3] | refractive index, [2] | speed of sound, [1] [m/s]
298.15 K, x2 = 0 | 1107.16 | 1.48591 | 1634.3
298.15 K, x2 = 0.1242 | 1204.09 | 1.46742 | 1491.9
298.15 K, x2 = 0.22 | 1253.58 | 1.45836 | 1431.2
298.15 K, x2 = 0.3191 | 1292.55 | 1.45142 | 1387.3
298.15 K, x2 = 0.4048 | 1320.08 | 1.44661 | 1357.6
298.15 K, x2 = 0.51 | 1348.24 | 1.44176 | 1327.5
298.15 K, x2 = 0.5945 | 1367.5 | 1.43844 | 1306.9
298.15 K, x2 = 0.7171 | 1391.3 | 1.4343 | 1280.2
298.15 K, x2 = 0.8383 | 1411.52 | 1.43075 | 1256.7
298.15 K, x2 = 0.9084 | 1421.66 | 1.42892 | 1244
303.15 K, x2 = 0 | 1103.07 | 1.48403 | 1617.7
303.15 K, x2 = 0.1242 | 1198.66 | 1.46576 | 1477.1
303.15 K, x2 = 0.22 | 1248.02 | 1.45679 | 1417
303.15 K, x2 = 0.3191 | 1287.03 | 1.44988 | 1373.5
303.15 K, x2 = 0.4048 | 1314.63 | 1.4451 | 1344.4
303.15 K, x2 = 0.51 | 1342.88 | 1.44028 | 1314.7
303.15 K, x2 = 0.5945 | 1362.18 | 1.43699 | 1294.3
303.15 K, x2 = 0.7171 | 1386.09 | 1.43286 | 1268.1
303.15 K, x2 = 0.8383 | 1406.4 | 1.42932 | 1244.9
303.15 K, x2 = 0.9084 | 1416.7 | 1.42747 | 1232.4
308.15 K, x2 = 0 | 1098.99 | 1.48218 | 1602.3
308.15 K, x2 = 0.1242 | 1193.23 | 1.46414 | 1462.9
308.15 K, x2 = 0.22 | 1242.46 | 1.45525 | 1403.4
308.15 K, x2 = 0.3191 | 1281.51 | 1.44835 | 1360.3
308.15 K, x2 = 0.4048 | 1309.18 | 1.44359 | 1331.3
308.15 K, x2 = 0.51 | 1337.52 | 1.43881 | 1302.1
308.15 K, x2 = 0.5945 | 1356.86 | 1.43554 | 1281.8
308.15 K, x2 = 0.7171 | 1380.88 | 1.43142 | 1255.9
308.15 K, x2 = 0.8383 | 1401.28 | 1.42789 | 1233.1
308.15 K, x2 = 0.9084 | 1411.74 | 1.426 | 1221
313.15 K, x2 = 0 | 1094.9 | 1.48033 | 1585.4
313.15 K, x2 = 0.1242 | 1187.79 | 1.46253 | 1448.4
313.15 K, x2 = 0.22 | 1236.9 | 1.4537 | 1389.4
313.15 K, x2 = 0.3191 | 1275.99 | 1.44683 | 1346.9
313.15 K, x2 = 0.4048 | 1303.73 | 1.44209 | 1318.2
313.15 K, x2 = 0.51 | 1332.16 | 1.43733 | 1289.4
313.15 K, x2 = 0.5945 | 1351.54 | 1.43407 | 1269.4
313.15 K, x2 = 0.7171 | 1375.67 | 1.42997 | 1244
313.15 K, x2 = 0.8383 | 1396.16 | 1.42645 | 1221.8
313.15 K, x2 = 0.9084 | 1406.78 | 1.42456 | 1209.8
318.15 K, x2 = 0 | 1090.82 | 1.47841 | 1569.4
318.15 K, x2 = 0.1242 | 1182.35 | 1.46087 | 1434.3
318.15 K, x2 = 0.22 | 1231.34 | 1.45212 | 1375.9
318.15 K, x2 = 0.3191 | 1270.47 | 1.44527 | 1333.8
318.15 K, x2 = 0.4048 | 1298.28 | 1.44057 | 1305.5
318.15 K, x2 = 0.51 | 1326.8 | 1.43584 | 1276.9
318.15 K, x2 = 0.5945 | 1346.22 | 1.43261 | 1257.2
318.15 K, x2 = 0.7171 | 1370.46 | 1.42853 | 1232.2
318.15 K, x2 = 0.8383 | 1391.04 | 1.42499 | 1210.4
318.15 K, x2 = 0.9084 | 1401.82 | 1.42312 | 1198.6
323.15 K, x2 = 0 | 1086.75 | 1.47649 | 1553.5
323.15 K, x2 = 0.1242 | 1176.91 | 1.4592 | 1420.2
323.15 K, x2 = 0.22 | 1225.78 | 1.45051 | 1362.6
323.15 K, x2 = 0.3191 | 1264.95 | 1.44369 | 1320.9
323.15 K, x2 = 0.4048 | 1292.83 | 1.43902 | 1292.9
323.15 K, x2 = 0.51 | 1321.44 | 1.43432 | 1264.6
323.15 K, x2 = 0.5945 | 1340.9 | 1.4311 | 1245.2
323.15 K, x2 = 0.7171 | 1365.25 | 1.42704 | 1220.5
323.15 K, x2 = 0.8383 | 1385.92 | 1.42352 | 1199.1
323.15 K, x2 = 0.9084 | 1396.86 | 1.42164 | 1187.6
